Assays:
[1] = GI S9 stability, rat, Example Y; assay type: in vitro ADME; conditions: pooled intestinal S9 fractions; rat intestinal S9, 1.0 mg/mL protein, 2 μM compound, pH 7.4; read-out: GIS9 Rat T½ (per Ex. Y)
Description: (§1) Example Y: GI S9 Stability Data
(§2) Stock solutions of test compounds in dimethyl sulfoxide (DMSO) having a final concentration of 10 mM were prepared and used in all experiments. Sekisui XenoTech (Kansas City, KS) provided pooled intestinal S9 fractions. All other chemicals were purchased from Sigma-Aldrich (St. Louis, MO) or VWR (West Chester, PA). Internal Standard/Quench (IS/Q) used to stop reactions was 100 nM labetalol in (by volume) methanol (10%) and acetonitrile (90%).
(§3) Stability in Intestinal S9 Fractions: Duplicate aliquots of test compound or positive control substrate were added to S9 stock diluted with phosphate buffered saline (137 mM NaCl, 2.7 mM KCl, 10 mM phosphate buffer), pH 7.4, to obtain a protein concentration of 1.0 mg/mL. The metabolic reactions were initiated by the addition of the substrates to the S9 reaction mixture to a final concentration of 2 μM. At 0, 10, 20, 30, 60 and 120 min, 25 μL aliquots of the reaction mixture were transferred to plates containing 225 μl of IS/Q solution. After quenching, the plates were centrifuged at 3000×g for 30 minutes. 150 μL aliquots of each supernatant were dried down then reconstituted with 300 μL water. Aliquots (10 μL) of the prepared samples were analyzed on a Thermo Q-Exactive mass spectrometer as described below.
(§4) Liquid Chromatography—Mass Spectrometry: Quantification of test compounds and control substrate was performed by analyte/internal standard peak area ratio (PAR) values measured on a Thermo Q-Exactive mass spectrometer coupled to a Dionex UltiMate 3000 HPLC with a Leap Technologies HTC PAL autosampler. The column used for analysis was a Waters Acquity BEH C18 (1.7 μm particle size, 2.1×50 mm). Mobile phase A consisted of 0.1% (v/v) formic acid in water. Mobile phase B consisted of 0.1% (v/v) formic acid in acetonitrile. Elution of analytes was achieved by a series of linear gradients varying the proportions of A and B. The mass spectrometer was calibrated on a weekly basis and mass tolerance of 5 ppm was used.
(§5) Metabolic stabilities in S9 fractions were determined by measuring the rates of disappearance of test compound and positive control substrate.
(§6) Data (% of substrate remaining) were plotted on a semi-log scale and fitted using an exponential decline model:
(§7) Ct=C0×e^−ln2/T1/2×t • Where Ct—% of substrate remaining at time=t; C0—% of substrate remaining at time=0; t—time; T1/2—half-life. • The Half-life (T1/2) is determined by the following equation: […]
(§8) Assuming a first-order reaction, the slope (k) is extrapolated from the aforementioned plotted data.

[2] = GI S9 stability, human, Example Y; assay type: in vitro ADME; conditions: pooled intestinal S9 fractions; human intestinal S9, 1.0 mg/mL protein, 2 μM compound, pH 7.4; read-out: GIS9 Human T½ (per Ex. Y)
Description: as §1, §2, §3, §4, §5, §6, §7, §8

[3] = system: Human Rhinovirus 1B (HRV1B); assay: H1-HeLa HRV-CTG 384-well assay, HRV1B, Example X; assay type: cell-based; conditions: Rhinovirus A, 96 h; H1-HeLa cells, HRV1B MOI 0.5, 4 days, Celltiter-Glo; read-out: EC50 H1-HeLa_HRV 1B_HRV-CTG 384-well Assay (per Ex. X)
Text: (§9) Example X: H1-HeLa HRV-CTG 384-Well Assay
(§10) H1-Hela cell line (ATCC, Manassas, VA, Cat #CRL-1958) was maintained in Dulbecco's […] (DMEM) (Corning, New York, NY, Cat #15-018CM) supplemented with 10% fetal bovine serum (FBS) (Hyclone, Logan, UT, Cat #SH30071-03), and 1× Penicillin-Streptomycin-L-Glutamine (Corning, New York, NY, Cat #30-009-CI). Cells were passaged 2 times per week to maintain sub-confluent densities and were used for experiments at passage 5-30. The Human Rhinovirus 1B (HRV1B) (ATCC, Manassas, VA, Cat #VR-1645), Human Rhinovirus 14 (HRV14) (ATCC, Manassas, VA, Cat #VR-284), and Human Rhinovirus 16 (HRV16) (ATCC, Manassas, VA, Cat #BR-283) was obtained through ATCC. Viral infection was monitored by determining viability of H1-HeLa cells as described below.
(§11) Test molecules are prepared in 100% DMSO in 384-well polypropylene plates (Greiner, Monroe, NC, Cat #784201) with 8 compounds per plate in grouped replicates of 4 at 10 serially diluted concentrations (1:3). The serially diluted compounds were transferred to low dead volume Echo plates (Labcyte, Sunnyvale, CA, Cat #LP-0200).
(§12) The test compounds were spotted to 384-well assay plates (Greiner, Monroe, NC, Cat #781091) at 200 nL per well using an Echo acoustic dispenser (Labcyte, Sunnyvale, CA). H1-HeLa cells were harvested and suspended in DMEM (supplemented with 2% FBS and 1× Penicillin-Streptomycin-L-Glutamine) and seeded to the pre-spotted assay plates at 5,000 cells per well in 30 μL. HRV1B, HRV14, and HRV16 was diluted in DMEM (supplemented with 2% FBS and 1× Penicillin-Streptomycin-L-Glutamine) at 97.1 million Infectious Units (IU) per mL, 151 million IU per mL and 221 million IU per mL respectively. 10 μL of virus per well was added to the assay plates containing cells and compounds, for an MOI of 0.5, 1.0, and 0.25 respectively. The assay plates were incubated for 4 days at 37° C. and 5% CO2. At the end of incubation, Celltiter-Glo (Promega, Madison, WI, Cat #G7573) was prepared. The assay plates and Celltiter-Glo reagent were equilibrated to room temperature for at least 15 minutes. 40 μL per well of Celltiter-Glo reagent was added and the plates were incubated at room temperature for 15 minutes before reading the luminescence signal on an EnVision multimode plate reader (Perkin Elmer, Waltham, MA). Rupintrivir was used as positive control and DMSO was used as negative control. Values were normalized to the positive and negative controls (as 0% and 100% replication, respectively) and data was fitted using non-linear regression analysis by Gilead's dose response tool. The EC50 value for each compound was defined as the concentration reducing viral replication by 50%.

[4] = system: Human Rhinovirus 14 (HRV14); assay: H1-HeLa HRV-CTG 384-well assay, HRV14, Example X; assay type: cell-based; conditions: Rhinovirus B, 96 h; H1-HeLa cells, HRV14 MOI 1.0, 4 days, Celltiter-Glo; read-out: EC50 H1-HeLa_HRV 14_HRV-CTG 384-well Assay (per Ex. X)
Text: as §9, §10, §11, §12

[5] = system: Human Rhinovirus 16 (HRV16); assay: H1-HeLa HRV-CTG 384-well assay, HRV16, Example X; assay type: cell-based; conditions: Rhinovirus A, 96 h; H1-HeLa cells, HRV16 MOI 0.25, 4 days, Celltiter-Glo; read-out: EC50 H1-HeLa_HRV 16_HRV-CTG 384-well Assay (per Ex. X)
Text: as §9, §10, §11, §12

SMILES | half-life at 2 μM [1] | half-life at 2 μM [2] | EC50 [3] | EC50 [4] | EC50 [5]
N#C[C@]1(COC(=O)OC2CCCC2)O[C@@H](c2ccc3c(N)ncnn23)[C@H](O)[C@@H]1O [Compound 1, ((2R,3S,4R,5S)-5-(4-aminopyrrolo[2,1-f][1,2,4]triazin-7-yl)-2-cyano-3,4-dihydroxytetrahydrofuran-2-yl)methyl cyclopentyl carbonate] | 6 min | 31 min | 8.65 µM | 19.1 µM | 31.2 µM
CC(C)(C)COC(=O)OC[C@@]1(C#N)O[C@@H](c2ccc3c(N)ncnn23)[C@H](O)[C@@H]1O [Compound 2, ((2R,3S,4R,5S)-5-(4-aminopyrrolo[2,1-f][1,2,4]triazin-7-yl)-2-cyano-3,4-dihydroxytetrahydrofuran-2-yl)methyl neopentyl carbonate] | 6 min | 23 min | 7 µM | 7.66 µM | 9.74 µM
CC[C@H](C)OC(=O)OC[C@@]1(C#N)O[C@@H](c2ccc3c(N)ncnn23)[C@H](O)[C@@H]1O [Compound 4, ((2R,3S,4R,5S)-5-(4-aminopyrrolo[2,1-f][1,2,4]triazin-7-yl)-2-cyano-3,4-dihydroxytetrahydrofuran-2-yl)methyl ((S)-sec-butyl) carbonate] | 10 min | 65 min | 11.2 µM | 22.2 µM | 38.6 µM
N#C[C@]1(COC(=O)OCCc2ccccc2)O[C@@H](c2ccc3c(N)ncnn23)[C@H](O)[C@@H]1O [Compound 5, ((2R,3S,4R,5S)-5-(4-aminopyrrolo[2,1-f][1,2,4]triazin-7-yl)-2-cyano-3,4-dihydroxytetrahydrofuran-2-yl)methyl phenethyl carbonate] | 4 min | 44 min | 3.35 µM | 9.75 µM | 11.2 µM
COC(=O)OC[C@@]1(C#N)O[C@@H](c2ccc3c(N)ncnn23)[C@H](O)[C@@H]1O [Compound 6, ((2R,3S,4R,5S)-5-(4-aminopyrrolo[2,1-f][1,2,4]triazin-7-yl)-2-cyano-3,4-dihydroxytetrahydrofuran-2-yl)methyl methyl carbonate] | 37 min | 201 min | 8.91 µM | 15.2 µM | 13.7 µM
CC(C)CCOC(=O)OC[C@@]1(C#N)O[C@@H](c2ccc3c(N)ncnn23)[C@H](O)[C@@H]1O [Compound 7, ((2R,3S,4R,5S)-5-(4-aminopyrrolo[2,1-f][1,2,4]triazin-7-yl)-2-cyano-3,4-dihydroxytetrahydrofuran-2-yl)methyl isopentyl carbonate] | 3 min | 20 min | 2.81 µM | 7.31 µM | 9.13 µM
CC(C)COC(=O)OC[C@@]1(C#N)O[C@@H](c2ccc3c(N)ncnn23)[C@H](O)[C@@H]1O [Compound 8, ((2R,3S,4R,5S)-5-(4-aminopyrrolo[2,1-f][1,2,4]triazin-7-yl)-2-cyano-3,4-dihydroxytetrahydrofuran-2-yl)methyl isobutyl carbonate] | 7 min | 29 min | 5.16 µM | 7.6 µM | 9.82 µM
CCCOC(=O)OC[C@@]1(C#N)O[C@@H](c2ccc3c(N)ncnn23)[C@H](O)[C@@H]1O [Compound 9, ((2R,3S,4R,5S)-5-(4-aminopyrrolo[2,1-f][1,2,4]triazin-7-yl)-2-cyano-3,4-dihydroxytetrahydrofuran-2-yl)methyl propyl carbonate] | 8 min | 29 min | 7.57 µM | 14.7 µM | 10.9 µM
CC[C@@H](C)OC(=O)OC[C@@]1(C#N)O[C@@H](c2ccc3c(N)ncnn23)[C@H](O)[C@@H]1O [Compound 10, ((2R,3S,4R,5S)-5-(4-aminopyrrolo[2,1-f][1,2,4]triazin-7-yl)-2-cyano-3,4-dihydroxytetrahydrofuran-2-yl)methyl ((R)-sec-butyl) carbonate] | 13 min | 104 min | 18.1 µM | 35.7 µM | 36.7 µM

— patent US20230382940A1, “ANTIVIRAL COMPOUNDS AND METHODS OF MAKING AND USING THE SAME” (Gilead Sciences, Inc., priority 2022, published 2023)
